From the supplement of paper PMC5579334
± gives the standard deviation of the averaged measurements.

Legend:
HS-PSS [1] = assay: drug sensitivity score (DSS, CellTox-Green cytotoxicity, 72 h) (DSS (dimensionless)); higher = more cytotoxic; extreme values may be limits of the assay
How it was run: (§1)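 For 72 h at 37 °C, MPNST cell lines and primary human Schwann cells were exposed in 384-well plates to five 10-fold compound dilutions. CellTox-Green, added before seeding at a final 1:1000 dilution, gave fluorescence from DNA released by disrupted cells. Signals were scaled to vehicle and positive-control wells, cultures failing plate quality control were left out, and four-parameter logistic fits were applied. Relative IC50 and drug sensitivity score were derived from the fits, with IC50 censored at the top concentration.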

ST8814 [2] = assay: as above
How it was run: as §1

S1507-2 [3] = assay: as above
How it was run: as §1

STS26T [4] = assay: as above
How it was run: as §1

[5] = test system: HSC1 (primary human Schwann cells); assay: as above
How it was run: as §1

[6] = test system: HSC2 (primary human Schwann cells); assay: as above
How it was run: as §1

HS-Sch-2 [7] = assay: % inhibition of CellTiter-Glo viability at highest tested concentration (72 h), relative to DMSO and benzethonium chloride controls; higher = more inhibition
How it was run: (§2)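 After seeding 750–1000 cells per well of MPNST cell lines or primary human Schwann cells into 384-well plates preprinted with each compound at five concentrations in 10-fold steps, plates were kept 72 h at 37 °C, 5% CO2. Viability was read as CellTiter-Glo ATP luminescence relative to vehicle and positive-control wells, with duplicates averaged where present. The data were fitted with four-parameter logistic models. Drug sensitivity score and relative IC50, censored at the top concentration, derive from the fits, and percent inhibition refers to the top concentration.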

HS-PSS [8] = assay: as above
How it was run: as §2

S462 [9] = assay: as above
How it was run: as §2

ST8814 [10] = assay: as above
How it was run: as §2

YST-1 [11] = assay: as above
How it was run: as §2

S1507-2 [12] = assay: as above
How it was run: as §2

STS26T [13] = assay: as above
How it was run: as §2

[14] = test system: HSC1 (primary human Schwann cells); assay: as above
How it was run: as §2

[15] = test system: HSC2 (primary human Schwann cells); assay: as above
How it was run: as §2

HS-Sch-2 [16] = assay: drug sensitivity score (DSS, CellTiter-Glo viability, 72 h) (DSS (dimensionless)); higher = more sensitive; extreme values may be limits of the assay
How it was run: as §2

HS-PSS [17] = assay: as above
How it was run: as §2

S462 [18] = assay: as above
How it was run: as §2

ST8814 [19] = assay: as above
How it was run: as §2

YST-1 [20] = assay: as above
How it was run: as §2

S1507-2 [21] = assay: as above
How it was run: as §2

STS26T [22] = assay: as above
How it was run: as §2

[23] = test system: HSC1 (primary human Schwann cells); assay: as above
How it was run: as §2

[24] = test system: HSC2 (primary human Schwann cells); assay: as above
How it was run: as §2

Compound	drug sensitivity score (HS-PSS [1])	drug sensitivity score (ST8814 [2])	drug sensitivity score (S1507-2 [3])	drug sensitivity score (STS26T [4])	drug sensitivity score [5]	drug sensitivity score [6]	% inhibition (HS-Sch-2 [7])	% inhibition (HS-PSS [8])	% inhibition (S462 [9])	% inhibition (ST8814 [10])	% inhibition (YST-1 [11])	% inhibition (S1507-2 [12])	% inhibition (STS26T [13])	% inhibition [14]	% inhibition [15]	drug sensitivity score (HS-Sch-2 [16])	drug sensitivity score (HS-PSS [17])	drug sensitivity score (S462 [18])	drug sensitivity score (ST8814 [19])	drug sensitivity score (YST-1 [20])	drug sensitivity score (S1507-2 [21])	drug sensitivity score (STS26T [22])	drug sensitivity score [23]	drug sensitivity score [24]
Nc1ccccc1NC(=O)c1ccc(CNC(=O)OCc2cccnc2)cc1 [Entinostat] (max concentration tested 10000 nM)	0.63	2.69	2.98 ± 1.3	0.625	0	0	79.7%	52%	105.3 ± 0.38%	87.7%	97.7%	74.9 ± 7.7%	69.3%	71.2%	73%	4.13	2.31	9.84 ± 0.75	4.2	10.3	4.79 ± 0.3	4.35	5.09	4.87
C[C@]12C=CC(=O)C=C1CC[C@@H]1[C@@H]2C(=O)C[C@@]2(C)[C@H]1CC[C@]2(O)C(=O)CO [Prednisone] (max concentration tested 10000 nM)	0	0	0	0	0	0	12.9%	3.03%	-0.361 ± 2%	-2.07%	-5.67%	0.647 ± 14%	4.83%	-0.144%	2.63%	0.07	0	0	0	0	0	0	0	0
CN(C)C[C@@H]1CCn2cc(c3ccccc32)C2=C(C(=O)NC2=O)c2cn(c3ccccc23)CCO1 [Ruboxistaurin] (max concentration tested 10000 nM)	1.36	0.807	6.69 ± 0.61	6.98	7.83	8.33	100%	86.7%	78.9 ± 11%	39.6%	99.7%	98.5 ± 4.9%	97.6%	93.9%	96.3%	5.19	5.24	6.12 ± 0.41	3.54	10	7.37 ± 0.77	5.76	5.06	7.78
CC[C@]1(O)C[C@@H]2CN(CCc3c([nH]c4ccccc34)[C@@](C(=O)OC)(c3cc4c(cc3OC)N(C)[C@H]3[C@@](O)(C(=O)OC)[C@H](OC(C)=O)[C@]5(CC)C=CCN6CC[C@]43[C@@H]65)C2)C1 [Vinblastine] (max concentration tested 1000 nM)	1.24	31.1	19.7 ± 1.8	32.9	10.7	21.5	91.9%	67.2%	93.02 ± 0.22%	84.7%	83.8%	81.1 ± 2.3%	92.4%	76%	87%	30	16.2	29.53 ± 0.036	26.8	24.8	22.63 ± 0.18	30.1	19.5	23.9
C=CCN(/C=C1/C(=O)O[C@H](COC)[C@@]2(C)C1=C(O)C(=O)C1=C2[C@H](OC(C)=O)C[C@]2(C)C(=O)CC[C@@H]12)CC=C [Sonolisib] (max concentration tested 10000 nM)	0	0	0	0	0	0	-0.71%	3.89%	17.1 ± 5.5%	7.84%	7.12%	15.9 ± 0.9%	11.4%	6.67%	13.1%	0	0	0.831 ± 1.2	0.745	0	0.798 ± 0.34	0.263	0	0.415
c1ccc([C@H]2CN3CCSC3=N2)cc1 [Levamisole] (max concentration tested 10000 nM)	0	0	0	0	0	0	-7.3%	-6.64%	0.12 ± 8.6%	-0.0528%	0.96%	-5.81 ± 3.8%	6.7%	-1.64%	4.5%	0	0	0	0	0	0	0	0	0
